Like-named read-outs stand apart in the source and are kept apart here.
Tests used:
JAK1 = JAK1 (Homo sapiens, UniProt P23458); assay: JAK/TYK2 assay (Kinase Glo luminescence): Jak1 kinase assay; type: biochemical; conditions: 7.5 nM enzyme, 2 uM ATP, 30 uM IRS-1, 1 hr
Protocol: Example A: JAK/TYK2 Assay 10 mM test compound stock or 1 mM control compound stock (tofocitinib, ruxolitinib or staurosporine) in DMSO was diluted to 0.4 mM in DMSO. A 3-fold series dilution was then performed in DMSO to generate 10 different compound concentrations. The assay was carried out in 384-well white plate. 0.5 μL of 40× compound DMSO solution at different concentrations was mixed with 10 uL 2× enzyme prepared in reaction buffer (20 mM HEPES, 10 mM MgCl2, 0.01% Tween, 1 mM DTT, pH 7.5). 10 uL 2× substrate mixture prepared in reaction buffer was then added to start the reaction. A short spin was done to settle down all solutions to the bottom of the plate. Final concentrations of test compound in the reaction mixture were 10000, 3333, 1111, 370, 123, 41.2, 13.7, 4.57, 1.52 and 0.51 nM, Concentrations of control compound were ten times less. Enzymatic reaction was conducted at 25° C. for 1-2 hours. 10 uL of Kinase Glo Reagents was added to stop the reaction and generate the luminescent signal which was measured using Envision. Luminescence signal was inversely related to kinase activity. […] The mixture without any compound was the positive control. [table]

[1] = tested on: JAK1/JAK3: IL-2 stimulated STAT5 phosphorylation; assay: JAK1/JAK3: IL-2 stimulated STAT5 phosphorylation in PBMCs; type: cell-based, human; conditions: PBMC
Protocol: Example B: JAK1/JAK3: IL-2 Stimulated STAT5 Phosphorylation in PBMCs
Human PBMCs: (Precision Biomedicine)
Thaw as per instructions. Thaw frozen PBMCs in 37° C. water bath. Transfer cell suspension to 9 mL of pre-warmed complete media (RPMI+10% FBS+L-Glu+Pen/Strep). Centrifuge at 400×g for 5 min and wash cells with 10 mL of complete media. Resuspend pellet for a cell-count of 3×10^6 cells/mL
Seed cells into 96-deep well at 80 uL/well based on experimental plate layout. Add 10 μL of (10× conc.) of different concentrations of compounds to all wells except controls (unstimulated) and mix it with 200 uL multichannel pipet. Add 10 uL of complete RPMI media with same % DMSO in controls. For dilution of compounds and dilution range please refer to appendix. Incubate in 5% CO2 incubator for 1 hour at 37° C. Add 10 μL of (10× conc.) IL-2 (final conc. 50 ng/mL) to each well except unstimulated and unstained controls and incubate further for 20 minutes in water bath at 37° C.
Add 900 μL of prewarmed 1× Fix/Lyse solution (Appendix) and mix it properly using 1000 μL multichannel pipet; incubate further on water bath at 37° C. for 10 minutes. Centrifuge at 800×g for 5 minutes, remove 900 uL of supernatant, and add 1000 μL of freshly prepared wash buffer or 1× PBS. Centrifuge at 800×g for 5 minutes, remove 900 μL of supernatant, and resuspend the pellet in remaining buffer.
Disrupt the pellet by gentle tapping and add 1000 μL of ice cold BD Phosflow Perm Buffer III and incubate further on ice for 30 minutes. Centrifuge at 800×g for 5 minutes. Wash two more times with 1000 μL of BD Stain buffer, remove supernatant except 100 uL of buffer after the last wash.
Disrupt the pellet by gentle tapping, add 100 uL of stain buffer and 5 μL of pSTAT5_Alex488 […] in all appropriate wells and mix properly using 200 μL multichannel pipet. Incubate plate overnight at […]. Add 900 μL of BD stain buffer and centrifuge at 800×g for 5 minutes. Wash one additional time with 1000 μL of buffer. Finally resuspend the pellet in 300 uL of BD stain buffer.
Transfer the cells to 96-well v-bottom plate and acquire the cells in Beckman Coulter Cytoflex. Acquiring cells in Flow Cytometer: Keep the threshold value to 250. Acquire at least 8,000-10,000 cells.
RPMI 1640 Complete Medium: RPMI 1640 media+10% FBS.
Cytokine dilution: 1) IL-2 Stock at 100 ug/mL. Prepare a 0.5 ug/mL dilution by adding 5 uL of stock into 995 uL of cRPMI. Keep it on ice until used.
Lyse/Fix buffer preparation: Dilute 5× Lyse/Fix buffer to 1× using MQ water and keep at 37° C. until used.
BD Phosflow perm buffer III: Keep on ice/fridge

[2] = human PBMCs, IL-2 50 ng/mL, pSTAT5 by flow cytometry, read-out: IL-2/J1J3/pS5: IC50 GeoMean
[3] = Homo sapiens, read-out: IL-2/J1J3/pS5: IC50 GeoMean (nM)

Sequence of JAK1 (P23458 whole entry, species assumed): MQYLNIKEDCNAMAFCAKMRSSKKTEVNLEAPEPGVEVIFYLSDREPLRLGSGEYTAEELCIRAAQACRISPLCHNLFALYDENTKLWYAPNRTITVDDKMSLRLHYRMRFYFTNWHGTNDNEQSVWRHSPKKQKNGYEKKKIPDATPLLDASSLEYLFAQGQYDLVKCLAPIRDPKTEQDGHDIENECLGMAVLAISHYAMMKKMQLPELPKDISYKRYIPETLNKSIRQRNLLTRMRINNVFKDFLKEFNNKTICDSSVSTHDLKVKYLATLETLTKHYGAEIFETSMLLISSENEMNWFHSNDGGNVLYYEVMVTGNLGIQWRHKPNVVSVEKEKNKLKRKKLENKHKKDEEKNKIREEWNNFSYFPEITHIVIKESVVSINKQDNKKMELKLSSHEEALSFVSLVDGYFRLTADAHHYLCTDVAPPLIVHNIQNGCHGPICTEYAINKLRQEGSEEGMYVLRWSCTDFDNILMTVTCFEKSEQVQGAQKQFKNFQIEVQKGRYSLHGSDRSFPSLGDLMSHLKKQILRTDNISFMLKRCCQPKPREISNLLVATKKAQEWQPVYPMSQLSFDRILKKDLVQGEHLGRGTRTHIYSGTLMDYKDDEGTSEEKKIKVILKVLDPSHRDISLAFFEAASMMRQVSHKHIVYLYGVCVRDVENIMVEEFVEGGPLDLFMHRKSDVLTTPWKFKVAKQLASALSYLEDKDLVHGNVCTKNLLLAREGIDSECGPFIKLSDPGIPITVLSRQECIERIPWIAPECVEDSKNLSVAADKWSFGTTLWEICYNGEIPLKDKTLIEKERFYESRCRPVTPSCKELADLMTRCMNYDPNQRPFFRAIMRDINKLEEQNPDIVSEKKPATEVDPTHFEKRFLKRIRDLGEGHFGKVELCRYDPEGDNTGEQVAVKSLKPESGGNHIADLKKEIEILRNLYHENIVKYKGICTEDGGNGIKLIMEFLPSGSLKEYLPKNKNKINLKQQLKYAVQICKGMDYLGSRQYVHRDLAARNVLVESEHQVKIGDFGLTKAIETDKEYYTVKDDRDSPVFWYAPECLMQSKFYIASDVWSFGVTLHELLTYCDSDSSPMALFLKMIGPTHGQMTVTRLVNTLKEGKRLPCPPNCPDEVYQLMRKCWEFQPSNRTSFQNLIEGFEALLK

## CCC(CC)Cn1ccc2cnc(Nc3cnn(CC(N)=O)c3)nc21 [Example 7, 2-(4-((7-(2-ethylbutyl)-7H-pyrrolo[2,3-d]pyrimidin-2-yl)amino)-1H-pyrazol-1-yl) acetamide]
JAK1
  IC50: < 100 nM
[1]; [2]
  IC50: < 100 nM

## CC[C@H](Cn1ccc2cnc(Nc3cnn(CC(N)=O)c3)nc21)C(C)C [Example 1, (S)-2-(4-((7-(2-ethyl-3-methylbutyl)-7H-pyrrolo[2,3-d]pyrimidin-2-yl)amino)-1H-pyrazol-1-yl) acetamide]
JAK1
  IC50: < 100 nM
[1]; [2]
  IC50: < 100 nM

## CC[C@H](Cn1ccc2cnc(Nc3cnn(CC(=O)N4CCOC4=O)c3)nc21)C(C)C [Example 3, (5)-3-(2-(4-((7-(2-ethyl-3-methylbutyl)-7H-pyrrolo[2,3-d]pyrimidin-2-yl)amino)-1H-pyrazol-1-yl)acetyl) oxazolidin-2-one]
JAK1
  IC50: < 100 nM
[1]; [3]
  IC50: < 100 nM

## CC[C@@H](Cn1ccc2cnc(Nc3cnn(C4CCNC4=O)c3)nc21)C(C)C (some centres unmarked) [Example 8]
JAK1
  IC50: < 100 nM
[1]; [3]
  IC50: < 100 nM
